From patent publication EP4413991A1, “PEPTIDE FOR COGNITIVE IMPROVEMENT” (Consejo Superior De Investigaciones Científicas, priority 2023, dated 2024)

What was measured:
Assay type in all cases: in vivo, C57BL/6 mice
5-methycytosine (5mC) = assay: DNA methylation immunofluorescence in hippocampal neurons; details: versus vehicle
Experimental: (§1) Different experimental group of old mice (~20 months of age) were randomly injected on the hilus region of both brain hemispheres with vehicle (PBS or destillated water) or with one of four different molecules: Vitamin B12 (50 mg/ml; Vet one, ref: 510218), S-(5'-Adenosyl)-L-methionine chloride (0,25 mg/ml; Sigma, ref: A7007), folic acid (0,25 mg/ml; Sigma, ref: F7876-10G) or synthetic FRa binding peptide, peptide having amino acid sequence SEQ ID NO: 1, (2,5 mg/ml and 5 mg/ml, diluted in PBS; Abyntec). The pH of Vitamin B12, methionine or folic acid were adjusted to ~7 to avoid negative effects due to overly acidic medium. One week after intracerebral injections, mice were assessed with behavioural (open field trial) and memory tests (novel object recognition) to study potential functional effects of different metabolites on central nervous system. Two weeks after surgeries mice were finally perfused just after finalized Y maze test performing.
After anesthesia with isofluorane, mice were secured in a stereotaxic frame (Kopf). Holes were drilled bilaterally in the skull at the injection sites (one per hemisphere) by microdrill with 0.5 mm drill bit. Stereotaxic coordinates used for intrahippocampal injections were as follows (from bregma): anterior-posterior 2.2, lateral 1.4, dorsoventral 2.0. A 33-gauge needle Hamilton syringe coupled to a syring pump controller mounted to the stereotaxic frame was used to inject 2µl of vehicle or metabolites at each site. Injections occurred at a rate of 0.25 µl/min, after which the needle was left in place for an additional 3 min, stopping another 3 minute in the halfway. […]
(§2) For 5mC, H3K9me3 and H4K20me3 antibodies, acquisition confocal settings (laser intensity, gain, pinhole) were kept constant for all images, which were captured in the same confocal session. […] The area above the threshold was then measured in Fiji and the mean fluorescence in the ROI was calculated and compared between vehicle and folate experimental groups.

old mice (~20 months) [1] = assay: Novel object recognition test (NOR), memory index; details: single intrahippocampal injection, versus vehicle; for recognition memory at short term: 2 hours after training trial; for recognition memory at long-term: 5 days after training trial
Experimental: as §1
(§3) After anesthesia with isofluorane, mice were secured in a stereotaxic frame (Kopf). Holes were drilled bilaterally in the skull at the injection sites (one per hemisphere) by microdrill with 0.5 mm drill bit. Stereotaxic coordinates used for intrahippocampal injections were as follows (from bregma): anterior-posterior 2.2, lateral 1.4, dorsoventral 2.0. A 33-gauge needle Hamilton syringe coupled to a syring pump controller mounted to the stereotaxic frame was used to inject 2µl of vehicle or metabolites at each site. Injections occurred at a rate of 0.25 µl/min, after which the needle was left in place for an additional 3 min, stopping another 3 minute in the halfway. After injections were completed, the skin was sutured and the animals were allowed to recover for 1 h on a heating pad before returning to the home cage. Mice remained in the home cage for an additional 1 week before the start of behavioral testing, being sacrificed 2 weeks after surgery.
Both open field (OF) and novel object recognition (NOR) tests were performed as described previously (Rodríguez-Matellán A, et al., In Vivo Reprogramming Ameliorates Aging Features in Dentate Gyrus Cells and Improves Memory in Mice. Stem Cell Reports. 2020 Nov 10;15(5):1056-1066. ). Locomotor activity as well as anxiety and depression-like behaviours in old mice were evaluated using OF. This test was used as habituation of NOR test. In brief, on the first day, the mice were placed individually for 10 min in a 45x45-cm plastic box with vertical opaque walls. Each session was recorded and different data like distance, speed, immobile time and time on center square of the box were analysed with Anymaze software. On the second day, mice were placed in the same box for 5 min, allowing them to explore two identical objects: A and B (two black rooks). Both objects were placed on the long axis of the cage, each 13 cm from the cage end. After each exposure, the objects and the cage were wiped with 70% ethanol to eliminate odors which potentially could condition successive mice behaviour. Two hours after the familiarization trial, each mouse was released into the box with the same object previously used (object A) and a new one (object C, a tower of coloured plastic pieces), instead of the object B (short-term memory test). The position of object C was the same as that of object B in the familiarization trial. The mice were given 5 min to explore the box. Five days later, the mice were released again into the box, with object A in the same position and another new object (object D, a falcon tube filled with wood chips) in the same position of the object C in the previous test. Again, animals were allowed 5 min to explore the box (Long-term memory test). Animals were considered to show recognition when their head was <2 cm from the object.
The memory index (Ml) was used to measure recognition memory performance. […]

Dnmt1 = assay: Western blot of Dnmt1 in hippocampal extracts; details: western blot densitometry; versus vehicle
Experimental: as §1
(§4) After anesthesia with isofluorane, mice were secured in a stereotaxic frame (Kopf). […]
Mice were anesthetized with an intraperitoneal pentobarbital injection (Dolethal, 60 mg/kg body weight) and transcardially perfused with saline. […] Serial parasagittal sections ([…] thick) were cryoprotected in 30% sucrose solution in PB and stored in ethylene glycol/glycerol at […] until they were analyzed. […]

perineuronal nets (PNN) = assay: Perineuronal nets (PNN) density labeled with WFA in dentate gyrus; details: single intrahippocampal injection, versus vehicle-injected aged mice
Experimental: as §1, with “Two weeks after surgeries mice were finally perfused just after finalized Y maze test performing.” left out
(§5) Quantifications for density of DCX/Blbp/CIdU-immunoreactive positive cells were performed by counting in four different consecutive medial brain sections the number of cells localized in each whole DG (distinguishing between SGZ and GCL) and the adjacent hilus region. For perineuronal nets of extracellular matrix, positive units labelled with WFA were counted in the dentate gyrus (including granular cell layer and hilus) from three different consecutive medial brain sections. […]

old mice (~20 months) [2] = assay: Y maze test for spatial memory; details: percentage of time in novel arm; single intrahippocampal injection; two weeks after surgery; versus vehicle
Experimental: as §1, with “performing. […]” for “performing.”
To assess spatial memory, an Y maze test based on published protocols with modifications (Kraeuter AK, et al. The Y-Maze for Assessment of Spatial Working and Reference Memory in Mice. Methods Mol Biol. 2019;1916:105-111. ) was performed. […] The number of entries into and the time spent in each arm, were registered from video recordings and analysed by AnyMaze software. […]

[3] = test system: neuronal precursors cells; assay: Adult neurogenesis markers in dentate gyrus, immunofluorescence cell density; details: subgranular zone; unique dose hippocampal injection; versus vehicle
Experimental: as §1, §3
Mice received three injections each 2 hours (200 ul/injection, in alternative sides of body) of 5-Chloro-2'-deoxy-Uridine (CldU, Sigma reference C6891; i.p. 42.75 mg/Kg bw) one week after cranial surgery and microinjections of solutions. In this way we were able to follow the effects of treatment in the proliferation of new cells at the subgranular zone, essential zone for neurogenesis process. […]
as §5

GluN2B = GluN2B immunoreactivity in molecular layer of dentate gyrus; details: single intrahippocampal injection, versus vehicle
Experimental: as §1
(§6) After anesthesia with isofluorane, mice were secured in a stereotaxic frame (Kopf). Holes were drilled bilaterally in the skull at the injection sites (one per hemisphere) by microdrill with 0.5 mm drill bit. […]
For GluN2B antibodies, the quantification was carried out with the imaged program by measuring the percentage of area occupied by the receptor immunoreactivity in the molecular layer of dentate gyrus. […]

H3K9me3 = assay: Histone methylation immunofluorescence in dentate gyrus; details: 14 days since injection, versus vehicle
Experimental: as §1, §4, §2

H4K20me3 = assay: as above; details: 14 days since injection, versus vehicle
Experimental: as §1, §4, §2

[4] = test system: 5-hydroxymethylcytosine (5hmc); assay: DNA hydroxymethylation in hippocampal neuronal layers; details: versus vehicle
Experimental: as §1
as §6, with “bit. Stereotaxic coordinates used for intrahippocampal injections were as follows (from bregma): anterior-posterior 2.2, lateral 1.4, dorsoventral 2.0.” for “bit.”

old mice (~20 months) [5] = assay: Open field test (OF); details: single bilateral intrahippocampal (hilus) injection, 2µl per site; tested one week after surgery; versus vehicle
Experimental: as §1, §3
Both open field (OF) and novel object recognition (NOR) tests were performed as described previously (Rodríguez-Matellán A, et al., In Vivo Reprogramming Ameliorates Aging Features in Dentate Gyrus Cells and Improves Memory in Mice. Stem Cell Reports. 2020 Nov 10;15(5):1056-1066. ). Locomotor activity as well as anxiety and depression-like behaviours in old mice were evaluated using OF. This test was used as habituation of NOR test. In brief, on the first day, the mice were placed individually for 10 min in a 45x45-cm plastic box with vertical opaque walls. Each session was recorded and different data like distance, speed, immobile time and time on center square of the box were analysed with Anymaze software. On the second day, mice were placed in the same box for 5 min, allowing them to explore two identical objects: A and B (two black rooks). […]

Sox2 = Sox2 expression in dentate gyrus, immunoreactivity; details: different regions of dentate gyrus (hilus, GCL, SGZ); unique-dose injection in aged mice; versus vehicle
Experimental: as §1
as §6, with “bit. Stereotaxic coordinates used for intrahippocampal injections were as follows (from bregma): anterior-posterior 2.2, lateral 1.4, dorsoventral 2.0.” for “bit.”

Row | Compound | level of 5mC, mean intensity (5-methycytosine (5mC); granular neuronal layer of dentate gyrus (P=0.0132)) | level of 5mC, mean intensity (5-methycytosine (5mC); pyramidal layer of CA1 (P-value=0.06)) | level of 5mC, mean intensity (5-methycytosine (5mC); pyramidal layer of CA3 (P-value=0.05)) | recognition memory at short term (old mice (~20 months) [1]) | recognition memory at long-term (old mice (~20 months) [1]) | expression of Dnmt1 hippocampal levels (Dnmt1) | PNN density labeled with WFA (perineuronal nets (PNN)) | spatial memory (old mice (~20 months) [2]) | doublecortin-ir cell density [3] | early neuronal precursor like blbp-ir cells density [3] | new born CIdU-ir cells density [3] | one-week-old neurons (double Dcx/CldU-ir cells) density [3] | expression of GluN2B immunoreactivity (percentage of area occupied) (GluN2B) | level of methylation at H3K9me3 (H3K9me3) | level of methylation at H4K20me3 (H4K20me3) | level of 5hmc [4] | anxiety-depression like behavior (central square time) (old mice (~20 months) [5]) | locomotor activity (distance travelled, speed and immobile time) (old mice (~20 months) [5]) | SOX2 expression (Sox2)
1 | Nc1nc2ncc(CNc3ccc(C(=O)N[C@@H](CCC(=O)O)C(=O)O)cc3)nc2c(=O)[nH]1 [folate, folic acid] | significant changes | important tendency | important tendency | not significant differences | improves | increased | significant reduction | improvement | neither found differences | subtle but non-significant tendency of increase | subtle but non-significant tendency of increase | subtle but non-significant tendency of increase | increase | does not modify | does not modify | not significant changes | improvement | improvement | –
2 | CTVRTSAEC (source 1..9: organism (original language) = constructo sintetico) [FRa binding peptide] | – | – | – | Not significant differences | significant improvement | – | reducing the density | – | – | – | – | – | increase | – | – | – | – | – | significant increase
3 | Vitamin B12 | – | – | – | not revealed significant differences | not revealed significant differences | – | – | not revealed significant differences | – | – | – | – | – | – | – | – | not revealed any alteration | not revealed any alteration | –
